According to patent US11667643B2, “RIP1K inhibitors” (priority 2020, dated 2023):
Read-outs that look alike come from different tables or passages of the source.

Legend:
RIPK1 = RIPK1 (Homo sapiens (Human), UniProt Q13546); experiment: biochemical; assay type: biochemical
Procedure: In this example, compounds of the disclosure were evaluated using a biochemical assay using the ADP-Glo™ technology.
ADP-Glo™ (Promega, Madison, Wis., USA) reagents were thawed at ambient temperature. Kinase Detection Reagent was prepared by mixing kinase detection buffer with the lyophilized kinase detection substrate.
A […] stock volume of 5× Reaction Kinase Buffer was made by mixing 1000 μl of 1M MgCl2, 500 μl of 1M Tris-HCL pH7.4, 0.5 mg/ml (25 mg) of BSA, and 3475 μl of distilled H2O. A 3 ml 2× working stock volume of Reaction Kinase Buffer was made containing a final concentration of 100 μM DTT and 4 mM MnCl2.
Components of RIPK1 enzyme (Rigel Pharmaceuticals, South San Francisco, Calif., USA) were thawed on ice. Diluted RIPK1 was prepared in 1× Kinase Reaction Buffer (diluted from 2× buffer) to 31 ng/well.
1.0 ul of diluted compound was added to a 384 well plate in duplicate. […] The final reaction volume was 5.0 μl. The plate was quickly centrifuged and the reaction was incubated at 30° C. for 30 minutes. Adding 5 μl of ADP-Glo™ terminated the reaction. The plate was quickly centrifuged and the reaction was incubated at room temperature for 40 minutes. Kinase Detection Reagent was then added and incubated at room temperature for 30 minutes. The relative light unit (RLU) of kinase reaction was determined by luminescent (Luminescence 0.1 s) using a Wallac Victor2 Luminometer (PerkinElmer, Waltham, Mass., USA).

U937 cells = experiment: U937 cell necroptosis assay (TNFa + zVAD, CellTiter-Glo recovery), functional human RIP1 assay; assay type: cell-based; details: Homo sapiens, U-937, 18 h, read-out: U937 Zvad TNF CTG Recovery, U937, TNFa + zVAD (IC50), U937 cells, zVAD-fmk, TNFa 2 ng/mL, 18 hours, CellTiter-Glo
Procedure: (§1) In this example, U937 and L929 cells were exposed to compounds of the present disclosure and a cell necroptosis assay was conducted to evaluate compound activity in functional human RIP1 and murine RIP1 assays.
(§2) U937 and L929 cells were obtained from the American Type Culture Collection (Manassa, Va., USA). Both cells were maintained in logarithmic growth phase in complete RPMI 1640 media (Sigma, ST Louis, Mo., USA) supplemented with 10% fetal bovine serum (Sigma, ST Louis, Mo., USA) at 37° C. with 5% CO2. For necroptosis assay, L929 cells were plated for 18 h in 100 μL/well medium at 10K cells/well in Costar 96-well black clear-bottom plates (Fisher Scientific, Hampton, N.H., USA); U937 cells were plated on the day of the assay in 50 μL/well medium containing 60 uM zVAD-fmk (Lonza, Basel, Switzerland) at 50K cells/well. Medium from L929 cells were removed from the 96-well plates and replaced with 50 μL/well new medium containing 40 uM zVAD-fmk. Each compound of the present disclosure evaluated in this example was serially diluted in DMSO from 2.5 mM in 4-fold dilutions, and then diluted 1:125 in complete medium. 50 μL/well 2× of the compound was then added to the cells in the plates. The cells were pre-incubated with the compound for 1 hour at 37° C. with 5% CO2 and before addition of 10 μL/well 11×TNFa (Peprotech, Rocky Hill, N.J., USA) to give a final concentration of 2 ng/mL for TNFa. The relative amount of necroptosis cells was determined by luminescent using a Wallac Victor2 Luminometer (PerkinElmer, Waltham, Mass., USA) and a CellTiter-Glo® Luminescent Cell Viability Reagent Assay (Promega, Madison, Wis., USA) added per manufacturer instructions after 18 hours of TNFa stimulation at 37° C. with 5% CO2. This example establishes that embodiments of the compounds described herein have unexpectedly potent activity against human RIP1 and murine RIP1, which allows their assessment in in vivo mouse models of disease.

L929 cells = experiment: L929 cell necroptosis assay (TNFa + zVAD, CellTiter-Glo recovery), functional murine RIP1 assay; assay type: cell-based; details: Mus musculus, L929, 18 h, read-out: L929-CTG-recovery, L929, TNFa + zVAD (IC50), L929 cells, zVAD-fmk, TNFa 2 ng/mL, 18 hours, CellTiter-Glo
Procedure: as §1, §2

[1] = RIPK1 enzyme 31 ng/well, 30° C. for 30 minutes, luminescence, read-out: RIPK1 ADP-Glo Kinase (IC50)

Sequence of RIPK1 (Q13546 whole entry, species assumed): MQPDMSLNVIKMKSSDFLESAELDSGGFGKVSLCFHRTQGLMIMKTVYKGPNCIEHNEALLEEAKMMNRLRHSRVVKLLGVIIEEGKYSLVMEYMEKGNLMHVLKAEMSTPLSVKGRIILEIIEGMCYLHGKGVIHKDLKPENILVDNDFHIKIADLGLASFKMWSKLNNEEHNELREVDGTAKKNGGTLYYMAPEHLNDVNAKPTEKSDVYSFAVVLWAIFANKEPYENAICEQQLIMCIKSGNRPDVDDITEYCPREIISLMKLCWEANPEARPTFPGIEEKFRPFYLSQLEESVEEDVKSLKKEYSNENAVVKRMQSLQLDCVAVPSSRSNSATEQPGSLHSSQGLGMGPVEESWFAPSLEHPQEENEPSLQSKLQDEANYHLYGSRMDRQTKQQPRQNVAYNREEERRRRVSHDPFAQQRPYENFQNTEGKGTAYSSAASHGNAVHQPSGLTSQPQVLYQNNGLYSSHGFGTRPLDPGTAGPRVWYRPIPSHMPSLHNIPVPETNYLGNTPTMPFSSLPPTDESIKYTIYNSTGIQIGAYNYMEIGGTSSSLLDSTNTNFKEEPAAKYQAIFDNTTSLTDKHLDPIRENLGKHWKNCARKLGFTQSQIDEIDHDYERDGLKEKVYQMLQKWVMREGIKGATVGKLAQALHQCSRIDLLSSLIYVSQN

SMILES | IC50 (RIPK1; [1]) [µM] | IC50 (U937 cells) [µM] | IC50 (L929 cells) [µM] | IC50 (RIPK1) [µM]
O=C(NC1CCc2ccc(N3CCC4(CCOCC4)CC3)cc2-n2ccnc21)c1cc(Oc2ccccc2)ccn1 (racemic) [Compound I-62, (±)-N-(9-(3-Oxa-9-azaspiro[5.5]undecan-9-yl)-5,6-dihydro-4H-benzo[f]imidazo[1,2-a]azepin-4-yl)-4-phenoxypicolinamide] | 0.0695 | 0.0301 | 10.1 | 
O=C(NC1CCc2ccccc2-n2cnnc21)c1ncn(Cc2ccccc2)n1 (racemic) [Compound I-63, (±)-1-Benzyl-N-(5,6-Dihydro-4H-benzo[f][1,2,4]triazolo[4,3-a]azepin-4-yl)-1H-1,2,4-triazole-3-carboxamide] | 0.134 | 0.289 | 10000 | 
O=C(NC1CCc2ccc(N3CCC4(CCOCC4)CC3)cc2-n2ccnc21)c1n[nH]c(Cc2ccccc2)n1 (racemic) [Compound I-64, (±)-N-(9-(3-Oxa-9-azaspiro[5.5]undecan-9-yl)-5,6-dihydro-4H-benzo[f]imidazo[1,2-a]azepin-4-yl)-5-benzyl-1H-1,2,4-triazole-3-carboxamide] |  | 0.0077 | 4.06 | 0.124
O=C(NC1CCc2ccc(N3CCC4(CCOCC4)CC3)cc2-n2c1noc2=O)c1n[nH]c(Cc2ccccc2)n1 (racemic) [Compound I-65, (±)-5-Benzyl-N-(1-oxo-9-(3-oxa-9-azaspiro[5.5]undecan-9-yl)-5,6-dihydro-1H,4H-benzo[f][1,2,4]oxadiazolo[4,3-a]azepin-4-yl)-1H-1,2,4-triazole-3-carboxamide] | 0.0678 | 0.0211 | 3.26 | 
O=C(NC1Cc2ccccc2-n2ccnc21)c1n[nH]c(Cc2ccccc2)n1 (racemic) [Compound I-66, (±)-5-Benzyl-N-(4,5-dihydroimidazo[1,2-a]quinolin-4-yl)-1H-1,2,4-triazole-3-carboxamide] | 13.5 | 10000 | 10000 | 
O=C(NC1Cc2ccccc2-n2ccnc21)c1cc(Oc2ccccc2)ccn1 (racemic) [Compound I-67, (±)-N-(4,5-Dihydroimidazo[1,2-a]quinolin-4-yl)-4-phenoxypicolinamide] | 11.4 | 10000 | 10000 | 
CC(C)(O)CCc1ccc2c(c1)-n1ccnc1C(NC(=O)c1n[nH]c(Cc3ccccc3)n1)CC2 (racemic) [Compound I-68, (±)-5-Benzyl-N-(9-(3-hydroxy-3-methylbutyl)-5,6-dihydro-4H-benzo[f]imidazo[1,2-a]azepin-4-yl)-1H-1,2,4-triazole-3-carboxamide] | 0.118 | 0.0252 | 8.67 | 
O=C(NC1CCc2ccccc2-n2c(Cl)cnc21)c1cc(Cc2ccccc2)on1 (racemic) [Compound I-71, (±)-5-Benzyl-N-(1-chloro-5,6-dihydro-4H-benzo[f]imidazo[1,2-a]azepin-4-yl)isoxazole-3-carboxamide] | 0.58 | 3.48 | 10000 | 
CC(C)(O)C#Cc1ccc2c(c1)-n1cnnc1C(NC(=O)c1n[nH]c(Cc3ccccc3)n1)CC2 (racemic) [Compound I-72, (±)-5-Benzyl-N-(9-(3-hydroxy-3-methylbut-1-yn-1-yl)-5,6-dihydro-4H-benzo[f][1,2,4]triazolo[4,3-a]azepin-4-yl)-1H-1,2,4-triazole-3-carboxamide] | 0.219 | 0.708 | 10000 | 
O=C(NC1CCc2ccccc2-n2c1nc(Cl)c2Cl)c1ncn(Cc2c(Cl)cccc2Cl)n1 (racemic) [Compound I-73, (±)-N-(1,2-Dichloro-5,6-dihydro-4H-benzo[f]imidazo[1,2-a]azepin-4-yl)-1-(2,6-dichlorobenzyl)-1H-1,2,4-triazole-3-carboxamide] | 0.0924 | 0.903 | 10000 | 
O=C(NC1CCc2ccccc2-n2c(Cl)cnc21)c1ncn(Cc2c(Cl)cccc2Cl)n1 (racemic) [Compound I-74, (±)-N-(1-Chloro-5,6-dihydro-4H-benzo[f]imidazo[1,2-a]azepin-4-yl)-1-(2,6-dichlorobenzyl)-1H-1,2,4-triazole-3-carboxamide] | 0.054 | 0.0898 | 8.62 | 
O=C(NC1CCc2ccc(N3CCC4(CCOCC4)CC3)cc2-n2ccnc21)c1ccn(Cc2ccccc2)n1 (racemic) [Compound I-77, (±)-N-(9-(3-Oxa-9-azaspiro[5.5]undecan-9-yl)-5,6-dihydro-4H-benzo[f]imidazo[1,2-a]azepin-4-yl)-1-benzyl-1H-pyrazole-3-carboxamide] | 0.111 | 0.0096 | 4.08 | 
O=C(NC1CCc2ccccc2-n2c1nc(Cl)c2Cl)c1n[nH]c(Cc2ccccc2)n1 (racemic) [Compound I-80, (±)-5-Benzyl-N-(1,2-dichloro-5,6-dihydro-4H-benzo[f]imidazo[1,2-a]azepin-4-yl)-1H-1,2,4-triazole-3-carboxamide] | 1.87 | 83.4 | 10000 | 
O=C(NC1CCc2ccccc2-n2c(Cl)cnc21)c1n[nH]c(Cc2ccccc2)n1 (racemic) [Compound I-81, (±)-5-Benzyl-N-(1-chloro-5,6-dihydro-4H-benzo[f]imidazo[1,2-a]azepin-4-yl)-1H-1,2,4-triazole-3-carboxamide] | 0.517 | 4.25 | 10000 | 
O=C(NC1CCc2ccc(N3CC4(CCOCC4)C3)cc2-n2ccnc21)c1n[nH]c(Cc2ccccc2)n1 (racemic) [Compound I-84, (±)-N-(9-(7-Oxa-2-azaspiro[3.5]nonan-2-yl)-5,6-dihydro-4H-benzo[f]imidazo[1,2-a]azepin-4-yl)-5-benzyl-1H-1,2,4-triazole-3-carboxamide] |  | 0.0386 | 8.79 | 0.119
O=C(NC1CCc2ccc(N3CC4(CCOCC4)C3)cc2-n2ccnc21)c1ccn(Cc2ccccc2)n1 (racemic) [Compound I-85, (±)-N-(9-(7-Oxa-2-azaspiro[3.5]nonan-2-yl)-5,6-dihydro-4H-benzo[f]imidazo[1,2-a]azepin-4-yl)-1-benzyl-1H-pyrazole-3-carboxamide] | 0.168 | 0.0309 | 1.35 | 
CC(C)(O)C#Cc1ccc2c(c1)-n1ccnc1C(NC(=O)n1cc(Cc3ccc(F)cc3)cn1)CC2 (racemic) [Compound I-93, (±)-4-(4-Fluorobenzyl)-N-(9-(3-hydroxy-3-methylbut-1-yn-1-yl)-5,6-dihydro-4H-benzo[f]imidazo[1,2-a]azepin-4-yl)-1H-pyrazole-1-carboxamide] | 0.0404 | 0.0371 | 5.17 | 
O=C(N[C@H]1COc2ccccc2-n2nnnc21)c1n[nH]c(Cc2ccccc2)n1 [Compound I-3, (R)-5-Benzyl-N-(4,5-dihydrobenzo[b]tetrazolo[1,5-d][1,4]oxazepin-4-yl)-1H-1,2,4-triazole-3-carboxamide] | 0.0582 | 4.08 | 10000 | 
O=C(N[C@H]1COc2ccccc2-n2nnnc21)c1cc(Cc2ccccc2)on1 [Compound I-8, (R)-5-Benzyl-N-(4,5-dihydrobenzo[6]tetrazolo[1,5-d][1,4]oxazepin-4-yl)isoxazole-3-carboxamide] | 0.521 | 4.45 | 10000 | 
